Experimental data reported in publication PMC2364994, “Complexes With Biologically Active Ligands. Part 1. Synthesis of Coordination Compounds of Diazoxide With Transition- and Main-Group Cations” (Metal-Based Drugs, 1996).

Legend:
Bovine CA II = biological target: T1, Bovine CA II (Bos taurus, UniProt P00921); experiment: Maren's micromethod, CO2 hydration; format: biochemical; conditions: 0 °C, veronal buffer; E-I technique; unit shows as (M) in the extracted table, text says micromolar range
T1 construct: gene CA2; commercial enzyme (Sigma Chemical Co.); isozyme described as erythrocyte CA

human CA I = biological target: T2, human CA I (Homo sapiens, UniProt P00915); experiment: Maren's micromethod, CO2 hydration; format: biochemical; conditions: 0 °C, veronal buffer; E-I technique; unit shows as (M) in the extracted table, text says micromolar range
T2 construct: gene CA1; commercial enzyme (Sigma Chemical Co.); isozyme described as erythrocyte CA
T2 sequence (P00915 2-261): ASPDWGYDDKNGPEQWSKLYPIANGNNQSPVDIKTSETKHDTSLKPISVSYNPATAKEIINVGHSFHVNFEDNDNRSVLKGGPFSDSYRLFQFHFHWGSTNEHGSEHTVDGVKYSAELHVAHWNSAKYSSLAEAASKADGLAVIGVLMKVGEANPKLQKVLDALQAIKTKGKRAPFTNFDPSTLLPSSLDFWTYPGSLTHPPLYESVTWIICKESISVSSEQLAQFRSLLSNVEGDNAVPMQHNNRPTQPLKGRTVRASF

T1 sequence (P00921 2-260): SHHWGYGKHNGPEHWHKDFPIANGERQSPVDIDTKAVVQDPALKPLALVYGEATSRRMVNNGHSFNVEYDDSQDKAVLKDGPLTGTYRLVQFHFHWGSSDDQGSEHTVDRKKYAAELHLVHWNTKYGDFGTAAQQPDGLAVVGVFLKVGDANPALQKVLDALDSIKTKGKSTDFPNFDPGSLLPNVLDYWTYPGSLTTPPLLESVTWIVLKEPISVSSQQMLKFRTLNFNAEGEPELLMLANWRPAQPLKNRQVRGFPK

Substance | IC50 (Bovine CA II) [M] | IC50 (human CA I) [M]
[PDZO)(OH)a].2HO [compound 14] | 6e-05 | 7.2e-05
[VO(DZO)(OH)].HO [compound 17] | 0.000125 | 0.000105
